Each block holds one substance with its values, some of them ahead of it.
Key:
[1] = test system: GFP-14-3-3β and its binding proteins; test: GFP-14-3-3β co-IP with LC-MS/MS label-free quantification, untreated versus PP1c-treated; design: species or system human
Experimental: (§1) HeLa Kyoto cells expressing transiently transfected pEGFP(C1)-14-3-3β or pEGFP(C1) control plasmid, were incubated with 20 nM Calyculin A (# 9902 S, Cell Signaling Technology) for 12 min. Cells were washed twice on ice with cold PBS and after addition of 500 µL lysis buffer (100 mM NaCl, 10 mM Tris, 0.1% IGEPAL, 1 mM EDTA, 1 mM EGTA, 20 nM Calyculin A, 1x cOmplete Mini protease inhibitor cocktail (Sigma), 1 mM DTT, 1 mM MnCl2) cells were scraped from plates, lysed by 10 pushes through an injection needle (21 G, BD) and the insoluble fraction was pelleted by centrifugation (10 min, 10^4 rcf, 4 °C). Supernatants were then subjected to incubation with 1 µM recombinant phosphatase or buffer for 1 h at 30 °C. Next, we subjected samples to immunoprecipitation using α-GFP nanobodies covalently coupled to agarose beads (2 h, 4 °C, obtained from the EMBL PEPcore Core Facility). Beads were then washed three times with lysis buffer and samples were eluted in 1x LDS sample buffer (Thermo Fisher Scientific) by heating to 70 °C for 10 min.
(§2) The samples were then reduced with 25 mM dithiothreitol (10 min at 70 °C) and alkylated with 55 mM chloroacetamide (room temperature, 30 min, in the dark). Proteins were run on a precast 4–12% NuPAGE gel (ThermoFisher Scientific) for about 1 cm to concentrate the sample prior to in-gel tryptic digestion, which was performed according to the standard procedures. The peptides obtained were dried to completeness and resuspended in 12 µL of buffer A (0.1% FA), and 5 µL of sample were injected per MS measurement. The experiment was carried out in three independent replicates.
(§3) The samples were analyzed by LC-MS/MS on a Dionex Ultimate 3000 nano-HPLC coupled online to a Fusion Lumos Tribrid mass spectrometer (Thermo Fisher Scientific). Peptides were delivered to a trap column (75 µm × 2 cm, packed in-house with 5 µm C18 resin; Reprosil PUR AQ, Dr. Maisch) and washed using 0.1% FA at a flow rate of 5 µL/min for 10 min. Subsequently, peptides were transferred to an analytical column (75 µm × 45 cm, packed in-house with 3 µm C18 resin; Reprosil Gold) applying a flow rate of 300 nL/min and separated using a 60 min linear gradient from 4% to 32% LC solvent B (0.1% FA, 5% DMSO in ACN) in LC solvent A (0.1% FA in 5% DMSO). The eluate from the analytical column was sprayed via a stainless steel emitter (Thermo Fisher Scientific) at a source voltage of 2.1 kV into the mass spectrometer. The transfer capillary was heated to 275 °C. The Fusion Lumos was operated in positive ionization mode and data-dependent acquisition (DDA), automatically switching between MS1 and MS2 spectrum acquisition. Full scan MS1 spectra were recorded in the Orbitrap from 360 to 1300 m/z at a resolution of 60k (automatic gain control (AGC) target value of 4e5 charges, maximum injection time (maxIT) of 50 ms). Up to 20 peptide precursors were isolated (isolation window, 1.7 m/z; maximum injection time, 25 ms; and AGC value, 1e5), fragmented by high-energy collision-induced dissociation (HCD) using 30% normalized collision energy (NCE), and analyzed at a resolution of 15k in the Orbitrap. Precursor ions that were singly charged, unassigned, or with charge states >6+ were excluded. The dynamic exclusion duration of fragmented precursor ions was 20 s.
(§4) Peptide and protein identification and LFQ were performed using MaxQuant software (version 1.6.1.0)[64] by searching the data against all canonical protein sequences as annotated in the Swissprot reference database (human proteins only, 20193 entries, downloaded 22 March 2016, internally annotated with PFAM domains) using the embedded search engine Andromeda[65]. The MaxQuant search was performed using two variable modifications; oxidation of methionine and N-terminal protein acetylation. Carbamidomethylation on cysteines was specified as a fixed modification. Trypsin (Trypsin/P) was specified as the proteolytic enzyme with up to two allowed missed cleavage sites.

GFP-14-3-3β = GFP-14-3-3β co-IP with LC-MS/MS, untreated GFP-14-3-3β versus GFP control (14-3-3 interactome); assay type: binding, human
Experimental: as §1, §2, §3, §4

[2] = log2 difference, pairwise comparison PP1 vs untreated, label-free quantification, 3 replicates each
[3] = log2 difference, pairwise comparison untreated vs GFP, label-free quantification, 3 replicates each
[4] = PP1 vs untreated, label-free quantification
[5] = untreated vs GFP, label-free quantification
[6] = pairwise comparison PP1 vs untreated, student's t-test, 3 replicates each, LC-MS/MS label-free quantification
[7] = pairwise comparison untreated GFP-14-3-3β vs GFP, student's t-test, 3 replicates each, LC-MS/MS label-free quantification
[8] = pairwise comparison PP1 vs untreated
[9] = pairwise comparison untreated vs GFP
[10] = PP1 vs untreated, LFQ intensities, replicates 1-3
[11] = untreated vs GFP, LFQ intensities, replicates 1-3
[12] = GFP-14-3-3β co-IP LC-MS/MS, PP1 vs untreated, student's t-test, label-free quantification, 3 replicates each
[13] = GFP-14-3-3β co-IP LC-MS/MS, untreated vs GFP, student's t-test, label-free quantification, 3 replicates each
[14] = PP1 vs untreated, LFQ intensities, 3 replicates each
[15] = untreated vs GFP, LFQ intensities, 3 replicates each

Substance: MYO5C
- Difference (log2), PP1 vs untreated [1, 4]: 0.9874 log2
- Difference (log2), untreated vs GFP (GFP-14-3-3β; [5]): -0.7461 log2

Substance: MYO18A
- Difference (log2), PP1 vs untreated [1, 6]: -3.467 log2
- Difference (log2), untreated vs GFP (GFP-14-3-3β; [7]): 2.435 log2

Substance: NONO
- Difference (log2), PP1 vs untreated [1, 10]: -0.8439 log2
- Difference (log2), untreated vs GFP (GFP-14-3-3β; [11]): 0.331 log2

Substance: NUMA1
- Difference (log2), PP1 vs untreated [1, 10]: -0.7467 log2
- Difference (log2), untreated vs GFP (GFP-14-3-3β; [11]): 2.2393 log2

Substance: NUP188
- Difference (log2), PP1 vs untreated [1, 12]: -0.6223 log2
- Difference (log2), untreated vs GFP (GFP-14-3-3β; [13]): 1.172 log2

Substance: NUP205
- Difference (log2), PP1 vs untreated [1, 12]: -0.6457 log2
- Difference (log2), untreated vs GFP (GFP-14-3-3β; [13]): 1.662 log2

Substance: NUP210
- Difference (log2), PP1 vs untreated [1, 10]: -1.109 log2
- Difference (log2), untreated vs GFP (GFP-14-3-3β; [11]): 2.632 log2

Substance: PCNT
- Difference (log2), PP1 vs untreated [1, 12]: -0.6422 log2
- Difference (log2), untreated vs GFP (GFP-14-3-3β; [13]): 1.216 log2

Substance: PKM
- Difference (log2), PP1 vs untreated [1, 10]: -1.659 log2
- Difference (log2), untreated vs GFP (GFP-14-3-3β; [11]): 0.471 log2

Substance: PMS2
- Difference (log2), PP1 vs untreated [1, 10]: -0.8647 log2
- Difference (log2), untreated vs GFP (GFP-14-3-3β; [11]): 0.6772 log2

Substance: PNN
- Difference (log2), PP1 vs untreated [1, 12]: -0.4869 log2
- Difference (log2), untreated vs GFP (GFP-14-3-3β; [13]): 2.978 log2

Substance: PPIB
- Difference (log2), PP1 vs untreated [1, 14]: 0.6708 log2
- Difference (log2), untreated vs GFP (GFP-14-3-3β; [15]): 0.09722 log2

Substance: PRPF8
- Difference (log2), PP1 vs untreated [1, 12]: -0.1499 log2
- Difference (log2), untreated vs GFP (GFP-14-3-3β; [13]): 2.212 log2

Substance: PSIP1
- Difference (log2), PP1 vs untreated [1, 12]: -0.2351 log2
- Difference (log2), untreated vs GFP (GFP-14-3-3β; [13]): 1.521 log2

Substance: PTBP1
- Difference (log2), PP1 vs untreated [1, 14]: 0.7235 log2
- Difference (log2), untreated vs GFP (GFP-14-3-3β; [15]): -0.5421 log2

Substance: RACGAP1
- Difference (log2), PP1 vs untreated [1, 6]: -3.139 log2
- Difference (log2), untreated vs GFP (GFP-14-3-3β; [7]): 6.129 log2

Second part, led by results:

- Difference (log2), PP1 vs untreated [1, 2]: 1.396
Substance: MYO5A
- Difference (log2), untreated vs GFP (GFP-14-3-3β; [3]): 0.8351

- Difference (log2), PP1 vs untreated [1, 4]: 1.198 log2
Substance: MYO5B
- Difference (log2), untreated vs GFP (GFP-14-3-3β; [5]): -1.223 log2

- Difference (log2), PP1 vs untreated [1, 8]: -0.101 log2
Substance: NAV1
- Difference (log2), untreated vs GFP (GFP-14-3-3β; [9]): 1.95 log2

- Difference (log2), PP1 vs untreated [1, 8]: 0.1234 log2
Substance: NPM1
- Difference (log2), untreated vs GFP (GFP-14-3-3β; [9]): 0.2613 log2

- Difference (log2), PP1 vs untreated [1, 2]: 1.3958
Substance: NSUN2
- Difference (log2), untreated vs GFP (GFP-14-3-3β; [3]): -0.08076

- Difference (log2), PP1 vs untreated [1, 8]: 0.26 log2
Substance: PABPC1
- Difference (log2), untreated vs GFP (GFP-14-3-3β; [9]): 0.5949 log2

- Difference (log2), PP1 vs untreated [1, 2]: 2.301
Substance: PCM1
- Difference (log2), untreated vs GFP (GFP-14-3-3β; [3]): -0.166

- Difference (log2), PP1 vs untreated [1, 2]: 1.388
Substance: PFKP
- Difference (log2), untreated vs GFP (GFP-14-3-3β; [3]): -0.1859

- Difference (log2), PP1 vs untreated [1, 4]: 1.222 log2
Substance: PHB2
- Difference (log2), untreated vs GFP (GFP-14-3-3β; [5]): 1.117 log2

- Difference (log2), PP1 vs untreated [1, 6]: -3.205 log2
Substance: PIK3C2B
- Difference (log2), untreated vs GFP (GFP-14-3-3β; [7]): 5.48 log2

- Difference (log2), PP1 vs untreated [1, 2]: 1.29
Substance: PLEC
- Difference (log2), untreated vs GFP (GFP-14-3-3β; [3]): -0.5388

- Difference (log2), PP1 vs untreated [1, 10]: -2.011 log2
Substance: PPIA
- Difference (log2), untreated vs GFP (GFP-14-3-3β; [11]): -0.5989 log2

- Difference (log2), PP1 vs untreated [1, 10]: -1.031 log2
Substance: PPL
- Difference (log2), untreated vs GFP (GFP-14-3-3β; [11]): -0.5694 log2

- Difference (log2), PP1 vs untreated [1, 8]: 0.07826 log2
Substance: PRKDC
- Difference (log2), untreated vs GFP (GFP-14-3-3β; [9]): -0.4154 log2

- Difference (log2), PP1 vs untreated [1, 14]: 0.5007 log2
Substance: PRRC2A
- Difference (log2), untreated vs GFP (GFP-14-3-3β; [15]): 0.07605 log2

- Difference (log2), PP1 vs untreated [1, 12]: -0.3723 log2
Substance: RAD50
- Difference (log2), untreated vs GFP (GFP-14-3-3β; [13]): 0.4724 log2

- Difference (log2), PP1 vs untreated [1, 10]: -2.029 log2
Substance: RANBP2
- Difference (log2), untreated vs GFP (GFP-14-3-3β; [11]): 2.443 log2

- Difference (log2), PP1 vs untreated [1, 2]: 1.3203
Substance: RFC3
- Difference (log2), untreated vs GFP (GFP-14-3-3β; [3]): -0.5439
